According to publication PMC3169403 (Acta Crystallographica Section F: Structural Biology and …, 2011):
Where two headings read alike, the source gives them in different places.

Biological target: T1, BpGCDH; glutaryl-CoA dehydrogenase from B. pseudomallei (Burkholderia pseudomallei, UniProt Q3JP94)
T1 construct: gene BURPS1710b_3237
Details: apo crystal without FAD, pH 7.5, individual soak 10-25 mM

T1 sequence (Q3JP94 1-395 limits assumed): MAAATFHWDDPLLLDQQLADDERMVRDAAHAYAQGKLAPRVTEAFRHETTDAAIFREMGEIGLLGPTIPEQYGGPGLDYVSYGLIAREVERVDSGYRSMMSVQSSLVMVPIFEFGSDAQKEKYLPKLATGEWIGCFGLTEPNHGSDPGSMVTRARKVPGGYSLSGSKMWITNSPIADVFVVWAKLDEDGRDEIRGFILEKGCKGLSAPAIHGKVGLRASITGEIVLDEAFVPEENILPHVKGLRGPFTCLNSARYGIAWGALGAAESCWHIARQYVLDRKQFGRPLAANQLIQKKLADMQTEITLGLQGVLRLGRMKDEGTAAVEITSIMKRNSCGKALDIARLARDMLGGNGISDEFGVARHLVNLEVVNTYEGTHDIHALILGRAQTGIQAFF

COC(=O)c1cccs1 [FOL544]
X-ray crystal structure (fragment soak) (glutaryl (substrate) site, one active site per tetramer): FOL544 (methyl thiophene-2-carboxylate; PDB entry 3d6b)

CN1CCN(C)c2cc(CN)ccc21 [FOL680, (1,4-dimethyl-1,2,3,4-tetrahydroquinoxalin-6-yl)methylamine]
X-ray crystal structure (fragment soak) (flavin site of FAD, second molecule in substrate site of one protomer, three per tetramer): FOL680 occupies the binding site for the flavin ring of the FAD cofactor

CC(C)n1c(S(=O)(=O)O)nc2ccccc21 [FOL6421, 1-(1-methylethyl)-1H-benzimidazole-2-sulfonate]
X-ray crystal structure (fragment soak) (glutaryl (substrate) site, all four active sites, HEPES also modelled at tetramer interface): FOL6421 (PDB entry 3gnc) was observed bound in all four active sites of tetrameric BpGCDH
